Measured values as given in patent US20240238323A1, “MODIFIED NUCLEOSIDES AND NUCLEOTIDES ANALOGS AS ANTIVIRAL AGENTS FOR CORONA AND OTHER VIRUSES” (Emory University, priority 2021, published 2024).
Where two headings read alike, the source gives them in different places.

What was measured:
[1] = tested on: SARS-CoV-2; assay: microbe, parasite or virus in culture; assay type: cell-based; settings: for EC50: read-out: Anti-SARS-COV-2 activity in Vero cells EC50; for EC90: read-out: Anti-SARS-COV-2 activity in Vero cells EC90
[2] = biological target: SARS-CoV-2 RdRp complex (nsp12-nsp7-nsp8) (Severe acute respiratory syndrome coronavirus 2, UniProt P0DTD1); assay type: biochemical
[3] = Severe acute respiratory syndrome coronavirus 2, Vero, 48 h
[4] = Severe acute respiratory syndrome coronavirus 2, Vero, 48 h, Vero cells, virus yield, 48 h post-infection
[5] = Severe acute respiratory syndrome coronavirus 2, Vero cells, virus yield, 48 h post-infection

Question: With CC(C)OC(=O)[C@H](C)N[P@](=O)(OC[C@H]1O[C@@H](n2ncc(=O)[nH]c2=O)C(O)C1O)Oc1ccccc1 (stereo partly drawn) as the molecule, how does the EC50 [1, 3] read?
Answer: < 10 µM

Question: Nc1cnn([C@@H]2O[C@H](CO)C(O)C2O)c(=O)n1 (stereo partly drawn) was tested. Which EC50 [1, 4] did it give?
Answer: < 10 µM

Question: COc1cnn([C@@H]2O[C@H](CO)C(O)C2O)c(=O)n1 (stereo partly drawn) was tested. Which EC50 [1, 4] did it give?
Answer: < 10 µM

Question: CC(C)OC(=O)[C@H](C)N[P@](=O)(OC[C@H]1O[C@@H](n2ncc(=O)[nH]c2=O)[C@](C)(O)C1O)Oc1ccccc1 (stereo partly drawn) was tested. Which EC50 [1, 3] did it give?
Answer: 10 µM

Question: Which results are given for Nc1nccc2c1ncn2[C@@H]1O[C@H](CO)C(O)C1O (stereo partly drawn)?
Answer: EC50 [1, 4]: 6 µM; EC90 [1, 5]: 15.2 µM

Question: OC[C@H]1O[C@@H](n2cnc3c(S)ncnc32)C(O)C1O (stereo partly drawn) was tested. Which EC50 [1, 4] did it give?
Answer: 11.1 µM

Question: What about the EC90 [1, 5] of the same molecule?
Answer: 23.5 µM

Question: With CC1(O)C(O)[C@@H](CO)O[C@H]1n1ccc(N)nc1=O (stereo partly drawn) as the molecule, how does the EC50 [1, 4] read?
Answer: 9.2 µM

Question: And the EC90 [1, 5]?
Answer: 29.6 µM

Question: CC1(O)C(O)[C@@H](CO)O[C@H]1n1cc(F)c2c(N)ncnc21 (stereo partly drawn) was tested. Which EC50 [1, 4] did it give?
Answer: 7.6 µM

Question: What about the EC90 [1, 5] of the same molecule?
Answer: 28.8 µM

Question: With CC(C)OC(=O)[C@H](C)NP(=O)(OC[C@H]1O[C@@H](n2cnc3c(N)ncnc32)C(C)(O)C1O)Oc1ccccc1 (stereo partly drawn) as the molecule, how does the EC50 [1, 3] read?
Answer: < 10 µM

Question: COc1ncnc2c1c(C(F)(F)F)cn2[C@@H]1O[C@H](CO)C(O)C1(C)O (stereo partly drawn) was tested. Which EC50 [1, 4] did it give?
Answer: < 10 µM

Question: Which EC50 [1, 4] does the source give for CC1(F)C[C@@H](CO)O[C@H]1n1ccc(=O)[nH]c1=O (stereo partly drawn) here?
Answer: 10 µM

Question: [N-]=[N+]=NC1C(O)[C@@H](CO)O[C@H]1n1ccc(=O)[nH]c1=O (stereo partly drawn) was tested. Which EC50 [1, 4] did it give?
Answer: < 10 µM

Question: CC(C)OC(=O)[C@H](C)N[P@@](=O)(OC[C@H]1O[C@@H](n2ccc(=O)[nH]c2=O)C(F)C1O)Oc1ccccc1 (stereo partly drawn) was tested. Which EC50 [1, 3] did it give?
Answer: < 10 µM

Question: Which EC50 [1, 4] does the source give for C#CC1C(O)[C@@H](CO)O[C@H]1n1cc(F)c(=O)[nH]c1=O (stereo partly drawn) here?
Answer: < 10 µM

Question: How did the EC50 [1, 4] turn out when [N-]=[N+]=NC1C[C@@H](COC(=O)c2ccccc2)O[C@H]1n1ccc(=O)[nH]c1=O (stereo partly drawn) was run?
Answer: 10 µM

Question: Which EC50 [1, 4] does the source give for O=c1ccn([C@@H]2O[C@H](CO)CC2F)c(=O)[nH]1 (stereo partly drawn) here?
Answer: < 10 µM

Question: NC1C=CN([C@@H]2O[C@H](CO)CC2(Cl)Cl)C(=O)N1 (stereo partly drawn) was tested. Which EC50 [1, 4] did it give?
Answer: < 10 µM

Question: For Nc1ccn([C@@H]2O[C@@](CO)(COC(F)F)[C@@H](O)[C@H]2F)c(=O)n1, which EC50 [1, 4] is on record?
Answer: < 10 µM

Question: Nc1ccn([C@@H]2O[C@@](CO)(C3CCO3)C(O)C2F)c(=O)n1 (stereo partly drawn) was tested. Which EC50 [1, 4] did it give?
Answer: < 10 µM

Question: With C#C[C@]1(CO)O[C@@H](n2cnc3c(N)ncnc32)C(O)C1O (stereo partly drawn) as the molecule, how does the EC50 [1, 4] read?
Answer: < 10 µM

Question: For C#C[C@]1(CO)O[C@@H](N2C=CC(N)NC2=O)[C@H](O)[C@@H]1O (stereo partly drawn), which EC50 [1, 4] is on record?
Answer: < 10 µM

Question: C#C[C@]1(CO[P@@](=O)(N[C@@H](C)C(=O)OC(C)C)Oc2ccccc2)O[C@@H](n2ccc(=O)[nH]c2=O)[C@H](O)[C@@H]1O was tested. Which EC50 [1, 3] did it give?
Answer: < 10 µM

Question: For O=c1ccn([C@@H]2C[C@H](CO)C(O)C2O)c(=O)[nH]1 (stereo partly drawn), which EC50 [1, 4] is on record?
Answer: < 10 µM

Question: For Nc1nc2c(ncn2[C@@H]2C[C@H](CO)C(O)C2O)c(=O)[nH]1 (stereo partly drawn), which EC50 [1, 4] is on record?
Answer: < 10 µM

Question: How did the EC50 [1, 4] turn out when Nc1ncnc2c1ccn2[C@@H]1C[C@H](CO)C(O)C1O (stereo partly drawn) was run?
Answer: < 10 µM

Question: Which EC50 [1, 4] does the source give for Nc1ncnc2c1ncn2[C@@H]1C[C@H](CO)C(O)C1O (stereo partly drawn) here?
Answer: < 10 µM

Question: For CC(C)OC(=O)[C@H](C)NP(=O)(OC[C@H]1C[C@@H](n2cnc3c(N)ncnc32)C(O)C1O)Oc1ccccc1 (stereo partly drawn), which EC50 [1, 3] is on record?
Answer: < 10 µM

Question: What does the source list for CC(C)C(=O)OC[C@@H]1OC[C@H](n2cnc3c(Cl)nc(Cl)nc32)O1?
Answer: EC50 [1, 4]: 2.3 µM; EC90 [1, 5]: 6.5 µM

Question: Which EC50 [1, 4] does the source give for COc1nc(Cl)nc2c1ncn2[C@H]1CO[C@@H](CO)O1 here?
Answer: < 10 µM

Question: Which EC50 [1, 3] does the source give for Nc1nc2c(ncn2[C@H]2CO[C@@H](CO)O2)c(=O)[nH]1 here?
Answer: > 10 µM

Question: With Nc1nc(N)c2ncn([C@H]3CO[C@@H](CO)O3)c2n1 as the molecule, how does the EC50 [1, 4] read?
Answer: 10 µM

Question: Which EC50 [1, 3] does the source give for CCOC(=O)[C@H](C)NP(=O)(OC[C@@H]1OC[C@H](n2cnc3c(OC)nc(N)nc32)O1)Oc1ccccc1 (stereo partly drawn) here?
Answer: > 10 µM

Question: Nc1nc(Cl)nc2c1ncn2[C@H]1CO[C@@H](CO)O1 was tested. Which EC50 [1, 4] did it give?
Answer: > 10 µM

Question: Which EC50 [1, 4] does the source give for OC[C@@H]1OC[C@H](n2cnc3c(Cl)nc(Cl)nc32)O1 here?
Answer: < 10 µM

Question: How did the EC50 [1, 3] turn out when CC(C)OC(=O)[C@H](C)N[P@](=O)(OC[C@@H]1OC[C@H](n2cnc3c(Cl)nc(Cl)nc32)O1)Oc1ccccc1 was run?
Answer: > 10 µM

Question: For OC[C@@H]1CC[C@H](n2cnc3c(Cl)nc(Cl)nc32)C1, which EC50 [1, 4] is on record?
Answer: < 10 µM

Question: Which EC50 [1, 4] does the source give for OC[C@@H]1C=C[C@H](n2cnc3c(Cl)nc(Cl)nc32)C1 here?
Answer: < 10 µM

Question: How did the EC50 [1, 3] turn out when CC(C)OC(=O)[C@H](C)NP(=O)(OC[C@@H]1C=C[C@H](n2cnc3c(Cl)nc(Cl)nc32)C1)Oc1ccccc1 (stereo partly drawn) was run?
Answer: < 10 µM

Question: For CC(C)OC(=O)[C@H](C)NP(=O)(OC[C@@H]1CC[C@H](n2cnc3c(Cl)nc(Cl)nc32)C1)Oc1ccccc1 (stereo partly drawn), which EC50 [1, 3] is on record?
Answer: < 10 µM

Question: How did the EC50 [1, 4] turn out when Nc1ncnc2c([C@H]3O[C@@H](CO)C(O)C3O)cnn12 (stereo partly drawn) was run?
Answer: < 10 µM

Question: How did the EC50 [1, 4] turn out when Nc1ncnc2c([C@@H]3C[C@H](CO)C(O)C3O)c[nH]c12 (stereo partly drawn) was run?
Answer: < 10 µM

Question: For OC[C@H]1C[C@@H](c2c[nH]c3c(O)ncnc23)C(O)C1O (stereo partly drawn), which EC50 [1, 4] is on record?
Answer: < 10 µM

Question: O=c1[nH]c(=O)n([C@H]2C[C@@H](CO)C(O)C2O)cc1F (stereo partly drawn) was tested. Which EC50 [1, 4] did it give?
Answer: < 10 µM

Question: With Nc1nc(O)c2[nH]cc([C@@H]3C[C@H](CO)C(O)C3O)c2n1 (stereo partly drawn) as the molecule, how does the EC50 [1, 4] read?
Answer: < 10 µM

Question: How did the EC50 [1, 4] turn out when OC[C@@H]1O[C@H](n2nnc3c(O)ncnc32)C(O)C1O (stereo partly drawn) was run?
Answer: < 10 µM

Question: For Nc1ncnc2c1cnn2[C@H]1O[C@@H](CO)C(O)C1O (stereo partly drawn), which EC50 [1, 4] is on record?
Answer: < 10 µM

Question: Which EC50 [1, 4] does the source give for OC[C@@H]1O[C@H](n2ncc3c(S)ncnc32)C(O)C1O (stereo partly drawn) here?
Answer: < 10 µM

Question: For O=c1ccn([C@H]2CC(F)(F)[C@@H](CO)S2)c(=O)[nH]1, which EC50 [1, 4] is on record?
Answer: < 10 µM

Question: CC1(O)C(O)[C@H](n2ccc(NO)nc2=O)S[C@@H]1CO (stereo partly drawn) was tested. Which EC50 [1, 4] did it give?
Answer: 1.2 µM

Question: And the EC90 [1, 5]?
Answer: 8.7 µM

Question: CC(C)OC(=O)[C@H](C)NP(=O)(OC[C@H]1O[C@@H](n2ccc(N)nc2=O)C(O)C1(C)O)Oc1ccccc1 (stereo partly drawn) was tested. Which EC50 [1, 3] did it give?
Answer: 9.3 µM

Question: What about the EC90 [1, 3] of the same molecule?
Answer: > 10 µM

Question: Which EC50 [1, 4] does the source give for CC1(O)C(O)[C@H](n2ccc(N)nc2=O)O[C@@H]1CO (stereo partly drawn) here?
Answer: 0.4 µM

Question: And the EC90 [1, 5]?
Answer: 3.6 µM

Question: What does the source list for O=c1nc(NO)ccn1C1CCC(CO)O1 (stereo not drawn)?
Answer: EC50 [1, 4]: 2.5 µM; EC90 [1, 5]: 83.4 µM

Question: With O=c1ccn([C@H]2CC[C@@H](CO)O2)c(=O)[nH]1 as the molecule, how does the EC50 [1, 4] read?
Answer: 10 µM

Question: Nc1ccn([C@H]2CC[C@@H](CO)O2)c(=O)n1 was tested. Which EC50 [1, 4] did it give?
Answer: < 10 µM

Question: How did the EC50 [1, 4] turn out when O=c1cnn([C@@H]2O[C@H](CO)C(O)C2O)c(=O)[nH]1 (stereo partly drawn) [drawing 46] was run?
Answer: 0.75 µM

Question: What about the EC90 [1, 5] of the same molecule?
Answer: 2.5 µM

Question: Which EC50 [1, 4] does the source give for C[C@@]1(O)C(O)[C@@H](CO)O[C@H]1n1ncc(=O)[nH]c1=O (stereo partly drawn) [drawing 50] here?
Answer: 10 µM

Question: For C[C@@]1(O)C(O)[C@@H](CO)O[C@H]1n1ncc(=O)[nH]c1=O (stereo partly drawn) [drawing 58], which EC50 ([1]; Vero cells, virus yield, 48 h post-infection) is on record?
Answer: < 10 µM

Question: For O=c1cnn([C@@H]2O[C@H](CO)C(O)C2O)c(=O)[nH]1 (stereo partly drawn) [drawing 105], which “inhibition of RNA synthesis by RdRp complex” value ([2]; concentrations of 1, 10 and 100 μM) is on record?
Answer: not significantly inhibited

Question: And the “inhibition of RNA synthesis by RdRp complex” value ([2]; concentrations of 250 and 500 μM)?
Answer: significant inhibition
